Patent US7709223B2, “Method for detecting bacteria with chromogenic substrates for β-D-ribofuranosidase” (priority 2001, dated 2010)
Counter-ions that a name gives are not always drawn.

How the values were obtained:
Format in all cases: cell-based
Aeromonas caviae = assay: Hydrolysis on Columbia agar with ferric ammonium citrate; set-up: key to the marks not given beside the values; settings: Aeromonas caviae NCTC 10852
Description: (§1) The chromogenic β-D-ribofuranoside substrate was added to Columbia agar at a substrate concentration of 300 mg/l. Ferric ammonium citrate was included at 500 mg/l. All ingredients were autoclaved at 116° C. for 20 minutes to ensure sterilisation. Agar plates were then prepared in 90 mm petri dishes. The substrate caused a yellow colouration of the agar.
(§2) For each strain tested, a bacterial suspension was prepared in sterile deionised water at an inoculum of approximately 1.5×10^8 colony forming units per ml. This was achieved using a densitometer. 1 μl of each bacterial suspension was then inoculated onto each plate using a multipoint inoculator. Strains were inoculated in parallel onto Columbia agar containing ferric ammonium citrate with no substrate (negative control).
(§3) After 18 hours incubation, strains were examined visually for the presence of colour. Any strains producing a black colouration on substrate containing media but not on the negative control plates were deemed to be hydrolysing the substrate.

Aeromonas hydrophila = assay: as above; set-up: key to the marks not given beside the values; settings: Aeromonas hydrophila NCTC 8049
Description: as §1, §2, §3

Aeromonas sobria = assay: as above; set-up: key to the marks not given beside the values; settings: Aeromonas sobria NCTC 11215
Description: as §1, §2, §3

C. diversus = assay: as above; set-up: key to the marks not given beside the values
Description: as §1, §2, §3

E. cloacae = assay: as above; set-up: key to the marks not given beside the values
Description: as §1, §2, §3

E. coli 0157 = assay: as above; set-up: key to the marks not given beside the values
Description: as §1, §2, §3

Hafnia alvei = assay: as above; set-up: key to the marks not given beside the values
Description: as §1, §2, §3

K. oxytoca = assay: as above; set-up: key to the marks not given beside the values
Description: as §1, §2, §3

Salmonella alachia = assay: as above; set-up: key to the marks not given beside the values; settings: Salmonella alachia SAX 60
Description: as §1, §2, §3

Salmonella hadar = assay: as above; set-up: key to the marks not given beside the values; settings: Salmonella hadar SAX 57
Description: as §1, §2, §3

Salmonella motevideo = assay: as above; set-up: key to the marks not given beside the values; settings: Salmonella motevideo SAX 55
Description: as §1, §2, §3

Salmonella orthmarchen = assay: as above; set-up: key to the marks not given beside the values; settings: Salmonella orthmarchen SAX 59
Description: as §1, §2, §3

Salmonella panama = assay: as above; set-up: key to the marks not given beside the values; settings: Salmonella panama SAX 58
Description: as §1, §2, §3

Salmonella typhimurium = assay: as above; set-up: key to the marks not given beside the values; settings: Salmonella typhimurium NCTC 74
Description: as §1, §2, §3

Salmonella typhi = assay: as above; set-up: key to the marks not given beside the values; settings: Salmonella typhi NCTC 8385
Description: as §1, §2, §3

Serratia marcescens = assay: as above; set-up: key to the marks not given beside the values; settings: Serratia marcescens NCTC 10211
Description: as §1, §2, §3

Shigella boydii = assay: as above; set-up: key to the marks not given beside the values
Description: as §1, §2, §3

Shigella dysenteriae = assay: as above; set-up: key to the marks not given beside the values
Description: as §1, §2, §3

Shigella flexneri = assay: as above; set-up: key to the marks not given beside the values
Description: as §1, §2, §3

Staphylococcus aureus = assay: as above; set-up: key to the marks not given beside the values
Description: as §1, §2, §3

[1] = tested on: Staphylococcus saprophyticus; assay: as above; set-up: key to the marks not given beside the values
Description: as §1, §2, §3

Vibrio fluvialis = assay: as above; set-up: key to the marks not given beside the values; settings: Vibrio fluvialis NCTC 11327
Description: as §1, §2, §3

Vibrio metschnikovii = assay: as above; set-up: key to the marks not given beside the values; settings: Vibrio metschnikovii NCTC 8443
Description: as §1, §2, §3

Acinetobacter lwoffii = assay: Mixed culture on solid medium with substrate and ferric ion; settings: mixed culture with Escherichia coli
Description: (§4) The limitations of using a substrate which generates a diffusible end product after hydrolysis on a solid medium are known by those skilled in the art. […] For example a culture plate was prepared containing solid medium and the chromogenic enzyme substrate 3′,4′-dihydroxyflavone-4′-β-D-ribofuranoside along with ferric ion. A culture containing roughly equal numbers of Escherichia coli (β-D-ribofuranosidase positive) and Acinetobacter lwoffii (β-D-ribofuranosidase negative) was grown on the medium. […] The A. lwoffii colonies were colourless. It was possible to differentiate the two species even when the colonies were virtually coincident.

Escherichia coli = assay: as above; settings: mixed culture with Acinetobacter lwoffii
Description: as §4

Gram negative bacteria = assay: Hydrolysis on Columbia agar with ferric ammonium citrate, strain panel; settings: 120 Gram negative bacteria tested
Description: (§5) The ribofuranoside derivative of dihydroxyflavone was tested with 194 distinct strains of bacteria. The choice of bacteria included a wide range many of which are important pathogens or commensals commonly isolated from pathological samples.
as §1, §2, §3

Gram-positive bacteria = assay: as above; settings: Gram-positive bacteria tested
Description: as §5, §1, §2, §3

## O=c1cc(-c2ccc(OC3OC(CO)C(O)C3O)c(O)c2)oc2ccccc12 [DHF-riboside, 3′,4′-Dihydroxyflavone-4′-β-D-ribofuranoside sodium salt]
Aeromonas caviae
  β-Riboside (hydrolysis): ++
Aeromonas hydrophila
  β-Riboside (hydrolysis): ++
Aeromonas sobria
  β-Riboside (hydrolysis): ++
C. diversus; C. diversus CDI 1
  β-Riboside (hydrolysis): ++
C. diversus; C. diversus CDI 2
  β-Riboside (hydrolysis): ++
E. cloacae; E. cloacae ECL 1
  β-Riboside (hydrolysis): ++
E. cloacae; E. cloacae ECL 2
  β-Riboside (hydrolysis): ++
E. cloacae; E. cloacae ECL 3
  β-Riboside (hydrolysis): ++
E. cloacae; E. cloacae ECL 4
  β-Riboside (hydrolysis): ++
E. cloacae; E. cloacae NCTC 11936
  β-Riboside (hydrolysis): ++
E. coli 0157; E. coli 0157 NCTC 12079
  β-Riboside (hydrolysis): ++
E. coli 0157; E. coli 0157 NCTC 12080
  β-Riboside (hydrolysis): ++
E. coli 0157; E. coli 0157 NCTC 12900
  β-Riboside (hydrolysis): ++
E. coli 0157; E. coli 0157 NCTC 13125
  β-Riboside (hydrolysis): ++
E. coli 0157; E. coli 0157 NCTC 13126
  β-Riboside (hydrolysis): ++
E. coli 0157; E. coli 0157 NCTC 13127
  β-Riboside (hydrolysis): ++
E. coli 0157; E. coli 0157 NCTC 13128
  β-Riboside (hydrolysis): ++
Hafnia alvei; Hafnia alvei HAL 2
  β-Riboside (hydrolysis): ++
Hafnia alvei; Hafnia alvei NCTC 8105
  β-Riboside (hydrolysis): ++
K. oxytoca; K. oxytoca KOX 1
  β-Riboside (hydrolysis): ++
K. oxytoca; K. oxytoca KOX 2
  β-Riboside (hydrolysis): ++
Salmonella alachia
  β-Riboside (hydrolysis): ++
Salmonella hadar
  β-Riboside (hydrolysis): ++
Salmonella motevideo
  β-Riboside (hydrolysis): ++
Salmonella orthmarchen
  β-Riboside (hydrolysis): ++
Salmonella panama
  β-Riboside (hydrolysis): ++
Salmonella typhimurium
  β-Riboside (hydrolysis): ++
Salmonella typhi
  β-Riboside (hydrolysis): ++
Serratia marcescens
  β-Riboside (hydrolysis): ++
Shigella boydii; Shigella boydii NCTC 9327
  β-Riboside (hydrolysis): ++
Shigella boydii; Shigella boydii NCTC 9732
  β-Riboside (hydrolysis): ++
Shigella boydii; Shigella boydii NCTC 9850
  β-Riboside (hydrolysis): ++
Shigella dysenteriae; Shigella dysenteriae (type 2) NCTC 9952
  β-Riboside (hydrolysis): ++
Shigella dysenteriae; Shigella dysenteriae (type 3) NCTC 9720
  β-Riboside (hydrolysis): ++
Shigella dysenteriae; Shigella dysenteriae (type 4) NCTC 9759
  β-Riboside (hydrolysis): ++
Shigella flexneri; Shigella flexneri NCTC 8192
  β-Riboside (hydrolysis): ++
Shigella flexneri; Shigella flexneri NCTC 9723
  β-Riboside (hydrolysis): ++
Shigella flexneri; Shigella flexneri NCTC 9780
  β-Riboside (hydrolysis): ++
Staphylococcus aureus; Reference No. 1
  β-Ribofuranoside (hydrolysis): ++
Staphylococcus aureus; Reference No. 2
  β-Ribofuranoside (hydrolysis): ++
Staphylococcus aureus; Reference No. 3
  β-Ribofuranoside (hydrolysis): ++
Staphylococcus aureus; Reference No. 4
  β-Ribofuranoside (hydrolysis): ++
Staphylococcus aureus; Reference No. 5
  β-Ribofuranoside (hydrolysis): ++
[1]; Reference No. 1
  β-Ribofuranoside (hydrolysis): ++
[1]; Reference No. 2
  β-Ribofuranoside (hydrolysis): ++
[1]; Reference No. 3
  β-Ribofuranoside (hydrolysis): ++
[1]; Reference No. 4
  β-Ribofuranoside (hydrolysis): ++
[1]; Reference No. 5
  β-Ribofuranoside (hydrolysis): ++
Vibrio fluvialis
  β-Riboside (hydrolysis): ++
Vibrio metschnikovii
  β-Riboside (hydrolysis): ++
Acinetobacter lwoffii
  Colour of A. lwoffii colonies: colourless
Escherichia coli
  Colour of E. coli colonies: intense black colonies
Gram negative bacteria
  Share of strains that hydrolysed the substrate: 68.3%
Gram-positive bacteria
  Share of strains active with the substrate: 30.8%
